Reference: ChEMBL document CHEMBL1909046, “DrugMatrix in vitro pharmacology data”

Assays:
[1] = target: 5-hydroxytryptamine receptor 6 (Homo sapiens, UniProt P50406); assay type: cell membranes, HeLa, Membrane; settings: hela; note: in other assays of this panel Not Active means under 50% inhibition at 10 µM
[2] = target: T1, Endothelin-1 receptor (Homo sapiens, UniProt P25101); assay type: cell membranes, Membrane; settings: cho-k1; note: in other assays of this panel Not Active means under 50% inhibition at 10 µM
T1 sequence (P25101 whole entry): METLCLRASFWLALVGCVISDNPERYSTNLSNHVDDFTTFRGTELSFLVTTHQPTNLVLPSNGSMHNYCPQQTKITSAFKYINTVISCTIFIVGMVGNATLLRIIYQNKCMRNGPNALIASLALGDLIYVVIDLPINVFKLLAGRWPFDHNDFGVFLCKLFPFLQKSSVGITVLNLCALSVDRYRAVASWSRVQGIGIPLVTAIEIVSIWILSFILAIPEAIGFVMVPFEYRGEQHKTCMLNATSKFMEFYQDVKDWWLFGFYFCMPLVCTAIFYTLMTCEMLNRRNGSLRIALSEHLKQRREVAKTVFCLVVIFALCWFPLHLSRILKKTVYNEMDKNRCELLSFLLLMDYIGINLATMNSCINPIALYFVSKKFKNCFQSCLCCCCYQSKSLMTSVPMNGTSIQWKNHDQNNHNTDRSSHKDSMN

[3] = DRUGMATRIX: Glutamate, Kainate radioligand binding (ligand: [3H] Kainic acid); assay type: cell membranes, Rattus norvegicus, Wistar, Brain, Membrane; settings: Not Active = under 50% inhibition at 10 µM
[4] = DRUGMATRIX: Glutamate, NMDA, Phencyclidine radioligand binding (ligand: [3H] TCP); assay type: cell membranes, Rattus norvegicus, Wistar, Cerebral cortex, Membrane; settings: Not Active = under 50% inhibition at 10 µM
[5] = target: T2, Polyunsaturated fatty acid lipoxygenase ALOX15 (Oryctolagus cuniculus, UniProt P12530); test: biochemical; assay type: tissue-based, Reticulocytes;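 note: inhibition of 15-lipoxygenase enzyme activity measured with linoleic acid as the substrate; in other assays of this panel Not Active means under 50% inhibition at 10 µM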
T2 sequence (P12530 whole entry): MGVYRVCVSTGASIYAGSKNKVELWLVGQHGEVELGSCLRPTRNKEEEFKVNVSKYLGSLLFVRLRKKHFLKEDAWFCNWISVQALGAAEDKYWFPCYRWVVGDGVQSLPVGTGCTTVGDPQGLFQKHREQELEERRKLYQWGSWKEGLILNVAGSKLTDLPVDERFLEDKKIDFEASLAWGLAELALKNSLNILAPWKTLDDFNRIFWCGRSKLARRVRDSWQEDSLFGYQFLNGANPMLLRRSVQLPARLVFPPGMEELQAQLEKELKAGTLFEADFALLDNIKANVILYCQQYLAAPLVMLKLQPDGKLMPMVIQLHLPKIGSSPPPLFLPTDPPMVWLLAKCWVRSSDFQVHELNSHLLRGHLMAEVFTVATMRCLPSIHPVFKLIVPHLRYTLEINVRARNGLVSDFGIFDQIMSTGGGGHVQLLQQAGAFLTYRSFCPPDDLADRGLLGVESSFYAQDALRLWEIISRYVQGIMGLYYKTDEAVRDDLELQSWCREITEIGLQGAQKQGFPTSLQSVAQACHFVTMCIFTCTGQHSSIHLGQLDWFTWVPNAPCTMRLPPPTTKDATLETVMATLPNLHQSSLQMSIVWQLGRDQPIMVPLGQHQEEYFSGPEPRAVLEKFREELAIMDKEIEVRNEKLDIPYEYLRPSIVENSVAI

[6] = target: Platelet-activating factor receptor (Homo sapiens, UniProt P25105); assay type: tissue-based; note: in other assays of this panel Not Active means under 50% inhibition at 10 µM
[7] = target: Voltage-gated inwardly rectifying potassium channel KCNH2 (Homo sapiens, UniProt Q12809); settings: hek293; note: in other assays of this panel Not Active means under 50% inhibition at 10 µM
Voltage-gated inwardly rectifying potassium channel KCNH2, sequence (Q12809 whole entry): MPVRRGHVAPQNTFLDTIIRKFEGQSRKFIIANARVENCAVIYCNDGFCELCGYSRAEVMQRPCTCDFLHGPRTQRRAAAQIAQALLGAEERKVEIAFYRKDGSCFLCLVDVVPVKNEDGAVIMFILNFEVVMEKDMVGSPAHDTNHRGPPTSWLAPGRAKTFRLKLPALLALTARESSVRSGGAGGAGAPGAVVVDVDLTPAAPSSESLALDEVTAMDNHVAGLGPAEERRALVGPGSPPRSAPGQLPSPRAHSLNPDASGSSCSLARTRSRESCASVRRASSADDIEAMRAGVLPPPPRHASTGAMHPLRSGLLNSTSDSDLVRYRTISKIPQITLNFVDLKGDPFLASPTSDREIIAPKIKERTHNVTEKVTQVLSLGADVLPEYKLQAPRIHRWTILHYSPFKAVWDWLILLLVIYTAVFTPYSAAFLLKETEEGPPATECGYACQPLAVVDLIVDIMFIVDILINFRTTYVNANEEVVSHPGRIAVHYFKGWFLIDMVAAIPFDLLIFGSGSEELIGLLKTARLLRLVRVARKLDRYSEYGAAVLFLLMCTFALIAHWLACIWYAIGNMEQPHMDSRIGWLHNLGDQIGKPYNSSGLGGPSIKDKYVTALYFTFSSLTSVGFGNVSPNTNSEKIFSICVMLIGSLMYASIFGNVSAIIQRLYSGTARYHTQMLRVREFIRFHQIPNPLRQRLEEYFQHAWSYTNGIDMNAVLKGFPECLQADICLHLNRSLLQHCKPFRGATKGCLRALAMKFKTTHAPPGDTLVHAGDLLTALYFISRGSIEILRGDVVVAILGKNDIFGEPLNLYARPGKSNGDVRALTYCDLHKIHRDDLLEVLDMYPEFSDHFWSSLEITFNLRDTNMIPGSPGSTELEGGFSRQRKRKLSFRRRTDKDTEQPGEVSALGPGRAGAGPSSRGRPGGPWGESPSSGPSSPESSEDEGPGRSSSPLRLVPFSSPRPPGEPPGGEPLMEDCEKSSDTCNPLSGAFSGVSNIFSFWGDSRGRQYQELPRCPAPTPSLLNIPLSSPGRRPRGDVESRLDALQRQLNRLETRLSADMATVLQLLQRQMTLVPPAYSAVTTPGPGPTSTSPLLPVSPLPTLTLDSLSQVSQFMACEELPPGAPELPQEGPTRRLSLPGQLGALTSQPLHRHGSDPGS

5-hydroxytryptamine receptor 6, sequence (P50406 whole entry): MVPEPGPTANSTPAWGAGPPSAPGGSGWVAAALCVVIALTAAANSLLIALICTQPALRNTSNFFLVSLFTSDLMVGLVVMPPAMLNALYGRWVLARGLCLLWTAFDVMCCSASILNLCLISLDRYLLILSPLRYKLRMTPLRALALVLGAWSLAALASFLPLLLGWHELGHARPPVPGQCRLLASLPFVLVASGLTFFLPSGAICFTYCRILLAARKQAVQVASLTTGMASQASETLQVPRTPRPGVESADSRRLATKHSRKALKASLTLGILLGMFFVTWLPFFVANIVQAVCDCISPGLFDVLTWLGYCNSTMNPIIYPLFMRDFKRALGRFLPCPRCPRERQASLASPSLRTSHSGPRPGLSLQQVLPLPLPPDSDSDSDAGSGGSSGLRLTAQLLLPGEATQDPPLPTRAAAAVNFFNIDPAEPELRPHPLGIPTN
Platelet-activating factor receptor, sequence (P25105 whole entry): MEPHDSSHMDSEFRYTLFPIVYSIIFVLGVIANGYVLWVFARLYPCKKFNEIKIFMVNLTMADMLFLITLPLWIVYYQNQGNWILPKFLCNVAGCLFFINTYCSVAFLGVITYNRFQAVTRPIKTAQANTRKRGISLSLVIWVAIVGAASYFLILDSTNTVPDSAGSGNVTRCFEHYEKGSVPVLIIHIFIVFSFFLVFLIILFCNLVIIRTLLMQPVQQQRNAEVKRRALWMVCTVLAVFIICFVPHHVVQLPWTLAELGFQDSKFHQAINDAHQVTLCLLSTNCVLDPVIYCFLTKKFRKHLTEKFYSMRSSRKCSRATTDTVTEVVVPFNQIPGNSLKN

Compound | IC50 [1] | IC50 [2] | IC50 [3] | Ki [3] | IC50 [4] | Ki [4] | IC50 ([5]; reticulocytes) | IC50 [6] | IC50 [7] | Ki [7] | IC50 ([5]; read-out: IC50) [µM]
COc1ccc2c3c1O[C@H]1C[C@@H](O)C=C[C@@]31CCN(C)C2 [GALANTAMINE] | Not Active | Not Active | Not Active | Not Active | Not Active | Not Active | Not Active | Not Active | Not Active | Not Active | –
Nc1ccn([C@@H]2O[C@H](CO)[C@@H](O)C2(F)F)c(=O)n1 [GEMCITABINE] | Not Active | Not Active | Not Active | Not Active | Not Active | Not Active | Not Active | Not Active | Not Active | Not Active | –
CC(C)=CCC/C(C)=C/CO [GERANIOL] | Not Active | Not Active | Not Active | Not Active | Not Active | Not Active | Not Active | Not Active | Not Active | Not Active | –
N=C(N)NC(=O)Cc1c(Cl)cccc1Cl [GUANFACINE] | Not Active | Not Active | Not Active | Not Active | Not Active | Not Active | Not Active | Not Active | Not Active | Not Active | –
Oc1c(Cl)cc(Cl)c(Cl)c1Cc1c(O)c(Cl)cc(Cl)c1Cl [HEXACHLOROPHENE] | Not Active | Not Active | Not Active | Not Active | Not Active | Not Active | Not Active | Not Active | Not Active | Not Active | –
NNc1nncc2ccccc12 [HYDRALAZINE] | Not Active | Not Active | Not Active | Not Active | Not Active | Not Active | – | Not Active | Not Active | Not Active | 3.65
CC(=O)[C@@]1(O)CC[C@H]2[C@@H]3CCC4=CC(=O)CC[C@]4(C)[C@H]3CC[C@@]21C [HYDROXYPROGESTERONE] | Not Active | Not Active | Not Active | Not Active | Not Active | Not Active | Not Active | Not Active | Not Active | Not Active | –
COC1=C(OC)C(=O)C(CCCCCCCCCCO)=C(C)C1=O [IDEBENONE] | Not Active | Not Active | Not Active | Not Active | Not Active | Not Active | Not Active | Not Active | Not Active | Not Active | –
CC(C)NNC(=O)c1ccncc1 [IPRONIAZID] | Not Active | Not Active | Not Active | Not Active | Not Active | Not Active | Not Active | Not Active | Not Active | Not Active | –
Cc1c(OCC(F)(F)F)ccnc1C[S+]([O-])c1nc2ccccc2[nH]1 (stereo not given) [LANSOPRAZOLE] | Not Active | Not Active | Not Active | Not Active | Not Active | Not Active | Not Active | Not Active | Not Active | Not Active | –
O=c1cc(N2CCOCC2)oc2c(-c3ccccc3)cccc12 [LY-294002] | Not Active | Not Active | Not Active | Not Active | Not Active | Not Active | Not Active | Not Active | Not Active | Not Active | –
COc1ccc2[nH]cc(CCNC(C)=O)c2c1 [MELATONIN] | Not Active | Not Active | Not Active | Not Active | Not Active | Not Active | Not Active | Not Active | Not Active | Not Active | –
NC(=O)C[S+]([O-])C(c1ccccc1)c1ccccc1 (stereo not given) [MODAFINIL] | Not Active | Not Active | Not Active | Not Active | Not Active | Not Active | Not Active | Not Active | Not Active | Not Active | –
O=C(O)c1cccnc1Nc1cccc(C(F)(F)F)c1 [NIFLUMIC ACID] | Not Active | Not Active | Not Active | Not Active | Not Active | Not Active | Not Active | Not Active | Not Active | Not Active | –
O=C(N/N=C/c1ccc([N+](=O)[O-])o1)c1cc([N+](=O)[O-])cc([N+](=O)[O-])c1O [NIFURSOL] | Not Active | Not Active | Not Active | Not Active | Not Active | Not Active | Not Active | Not Active | Not Active | Not Active | –
COC(=O)Nc1nc2ccc(C(=O)c3cccs3)cc2[nH]1 [NOCODAZOLE] | Not Active | Not Active | Not Active | Not Active | Not Active | Not Active | Not Active | Not Active | Not Active | Not Active | –
C#CC1(O)CC[C@H]2[C@@H]3CCC4=CC(=O)CC[C@@H]4[C@H]3CC[C@@]21CC (stereo not given in full) [NORGESTREL] | Not Active | Not Active | Not Active | Not Active | Not Active | Not Active | Not Active | Not Active | Not Active | Not Active | –
COC(=O)Nc1nc2ccc([S+]([O-])c3ccccc3)cc2[nH]1 (stereo not given) [OXFENDAZOLE] | Not Active | Not Active | Not Active | Not Active | Not Active | Not Active | Not Active | Not Active | Not Active | Not Active | –
CC(=O)O[C@H]1C(=O)[C@@]2(C)[C@H]([C@H](OC(=O)c3ccccc3)[C@]3(O)C[C@H](OC(=O)[C@H](O)[C@@H](NC(=O)c4ccccc4)c4ccccc4)C(C)=C1C3(C)C)[C@]1(OC(C)=O)CO[C@@H]1C[C@@H]2O [PACLITAXEL] | Not Active | Not Active | Not Active | Not Active | Not Active | Not Active | Not Active | Not Active | Not Active | Not Active | –
C[n+]1ccc(-c2cc[n+](C)cc2)cc1.[Cl-].[Cl-] [PARAQUAT DICHLORIDE] | Not Active | Not Active | Not Active | Not Active | Not Active | Not Active | Not Active | Not Active | Not Active | Not Active | –
CC(C)NCC(O)COc1cccc2[nH]ccc12 (stereo not given) [PINDOLOL] | Not Active | Not Active | Not Active | Not Active | Not Active | Not Active | Not Active | Not Active | Not Active | Not Active | –
CCn1cc(C(=O)O)c(=O)c2cnc(N3CCCC3)nc21 [PIROMIDIC ACID] | Not Active | Not Active | Not Active | Not Active | Not Active | Not Active | Not Active | Not Active | Not Active | Not Active | –
C[n+]1ccccc1/C=N/O.[Cl-] [PRALIDOXIME CHLORIDE] | Not Active | Not Active | Not Active | Not Active | Not Active | Not Active | Not Active | Not Active | Not Active | Not Active | –
C[C@]12C=CC(=O)C=C1CC[C@@H]1[C@@H]2[C@@H](O)C[C@@]2(C)[C@H]1CC[C@]2(O)C(=O)CO [PREDNISOLONE] | Not Active | Not Active | Not Active | Not Active | Not Active | Not Active | Not Active | Not Active | Not Active | Not Active | –
